# Where two headings read alike, the source gives them in different places. Ends that are not written are not given here.
# Assays:
# PrP^SC in ScN2a cells = PrP^SC in ScN2a cells (Mus musculus, UniProt P04925); assay type: cell-based; details: for anti-prion activity at 30 nM: pH 7.4
# [1] = assay type: physicochemical; details: pH 3
# [2] = assay type: physicochemical
# in vitro = details: mouse, ScN2a cells, pH 7.4, cell survival rate
# Sequence of PrP^SC in ScN2a cells (P04925 23-230 limits assumed): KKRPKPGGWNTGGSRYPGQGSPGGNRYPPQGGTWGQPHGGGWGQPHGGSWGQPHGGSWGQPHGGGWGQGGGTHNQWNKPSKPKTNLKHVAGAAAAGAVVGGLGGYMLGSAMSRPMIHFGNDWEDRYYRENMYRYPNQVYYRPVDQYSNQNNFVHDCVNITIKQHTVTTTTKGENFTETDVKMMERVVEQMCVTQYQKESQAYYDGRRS
compound,measurement,setting,value
"N=C(N)NCCC[C@H](NC(=O)CNC(=O)CCCCCN)C(=O)N[C@@H](CCCCN)C(=O)N[C@@H](CCCCN)C(=O)N[C@@H](CCCNC(=N)N)C(=O)N[C@@H](CCCNC(=N)N)C(=O)N[C@@H](CCC(N)=O)C(=O)N[C@@H](CCCNC(=N)N)C(=O)N[C@@H](CCCNC(=N)N)C(=O)N[C@@H](CCCNC(=N)N)C(=O)N1CCC[C@H]1C(=O)N1CCC[C@H]1C(=O)N[C@@H](CCC(N)=O)C(N)=O [Comparative Example 1, reference compound]",cytotoxicity,ScN2a cells,remarkably low cytotoxicity
H-GRKKRRQRRRPPQ-GSGG-FKFEFKFEFKFE-NH2 [Example 1],anti-prion activity (PK-resistant PrP^SC level by western blot),PrP^SC in ScN2a cells,gradual decrease in the PrP^SC concentration as its concentration is increased
same,concentration at which anti-prion activity is exhibited,PrP^SC in ScN2a cells,≥ 100 nM
RRRRRRRRRRRRGSGGFKFEFKFEFKFE-NH2 [Example 3],diameter of vesicular nanostructure,[1],20-90 nm
same,"height of vesicular nanostructure, on average",[1],1-20 nm
same,"height of vesicular nanostructure, specifically",[1],8-16 nm
same,"width of vesicular nanostructure, on average",[1],50-100 nm
same,"width of vesicular nanostructure, specifically",[1],70-90 nm
same,cytotoxicity,ScN2a cells,significantly lower toxicity than the peptide of Comparative Example 3
same,"zeta potential difference, acidic condition (pH 2-5.5) versus neutral condition",[2]; pH 2,+14 to 18 mV
same,zeta potential,[2]; pH 3,+40 mV
same,zeta potential,[2]; pH 5,+38 mV
same,zeta potential,[2]; pH 7,+24 mV
same,zeta potential,[2]; pH 11,+30 mV
same,viability,in vitro,≥ 70%
same,anti-prion activity (PK-resistant PrP^SC level by western blot),PrP^SC in ScN2a cells,remarkably higher anti-prion activity than the peptide consisting only of arginine residues of the same number (R12)
same,anti-prion activity at 10 nM,PrP^SC in ScN2a cells,remarkably superior anti-prion activity
same,fold decrease of anti-prion activity compared to R12-β UNS,PrP^SC in ScN2a cells,≥ 14.5 times
RRRRRRRRRRRRGSGGFKFEFKFEFKFE-NH2 [R12-β UNS],cytotoxicity at 10 μM,ScN2a cells; pH 7.4,low toxicity
same,anti-prion activity (PK-resistant PrP^SC level by western blot),PrP^SC in ScN2a cells,comparable to that of the peptide Comparative Example 3
same,fold higher anti-prion activity than R12-β SPN (fibrillar nanostructure),PrP^SC in ScN2a cells,14.5 times
H-RRRRRRRRRRRRRRR-GSGG-FKFEFKFEFKFE-NH2 [Example 5],anti-prion activity at 30 nM,PrP^SC in ScN2a cells,remarkably high anti-prion activity
RRRRRRRRRRRRGSGGFKFEFKFEFKFE-NH2 [R12-β SPN],cytotoxicity,ScN2a cells,moderate cytotoxicity
same,anti-prion activity (PK-resistant PrP^SC level by western blot),PrP^SC in ScN2a cells,comparable to that of the peptide of Example 1
H-RR-ahx-FKFEFKFEFKFE-NH2 [Example 2],anti-prion activity (PK-resistant PrP^SC level by western blot),PrP^SC in ScN2a cells,"shows anti-prion activity, although weaker than that of the fusion peptide of Example 1"
H-RRRRRRRRRRRRRR-GSGG-FKFEFKFEFKFE-NH2 [Example 4],anti-prion activity at 30 nM,PrP^SC in ScN2a cells,remarkably high anti-prion activity

# Reference: patent US10232012B2 (INDUSTRY-ACADEMIC COOPERATION FOUNDATION, YONSEI UNIVERSITY, priority 2016, dated 2019)
